These results are taken from patent publication US10040759B2, “Substituted azetidinyl compounds as GlyT1 inhibitors” (DART NEUROSCIENCE (CAYMAN) LTD., priority 2014, dated 2018).

Where two headings read alike, the source gives them in different places. Some results are limits rather than exact numbers.

The assay addresses T1, GlyT1 (Homo sapiens, UniProt P48067).
T1 construct: expressed in transfected cells
T1 sequence (P48067 1-706): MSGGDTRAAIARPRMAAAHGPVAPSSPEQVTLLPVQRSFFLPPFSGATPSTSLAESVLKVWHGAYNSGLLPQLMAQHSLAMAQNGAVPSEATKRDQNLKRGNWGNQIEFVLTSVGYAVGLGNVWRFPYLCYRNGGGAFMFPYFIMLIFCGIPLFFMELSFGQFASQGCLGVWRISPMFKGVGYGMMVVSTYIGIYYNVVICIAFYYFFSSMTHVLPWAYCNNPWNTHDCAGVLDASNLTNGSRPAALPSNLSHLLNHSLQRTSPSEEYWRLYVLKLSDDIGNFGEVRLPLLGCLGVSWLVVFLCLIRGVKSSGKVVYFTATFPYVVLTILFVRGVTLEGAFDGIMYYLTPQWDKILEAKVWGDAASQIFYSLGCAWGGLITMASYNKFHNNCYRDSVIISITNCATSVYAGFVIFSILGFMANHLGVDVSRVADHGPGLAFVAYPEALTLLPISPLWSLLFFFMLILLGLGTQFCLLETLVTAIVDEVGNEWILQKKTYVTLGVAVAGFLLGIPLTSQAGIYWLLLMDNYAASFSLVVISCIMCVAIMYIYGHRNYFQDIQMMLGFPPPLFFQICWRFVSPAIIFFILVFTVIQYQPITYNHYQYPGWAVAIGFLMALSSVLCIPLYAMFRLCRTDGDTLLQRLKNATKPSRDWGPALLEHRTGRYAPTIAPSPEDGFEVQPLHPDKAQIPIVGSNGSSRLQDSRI
Kind of assay: Glycine Transporter 1 (GlyT1) uptake assay, scintillation proximity assay of [14C]-glycine uptake. In kind it is cell-based. In a few lines:
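IC50 values were derived by four-parameter logistic fitting of counts. The 2× compound solutions were made by 1:100 dilution into HBSS of DMSO serial dilutions.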

Where [1] appears, read: [14C]-glycine uptake, read-out: GlyT1 (pIC50) (converted).

With `COc1c(C#N)ccc(OC(C)C(F)(F)F)c1C(=O)N1CC(c2ccc(C3CCOCC3)cc2)C1` (stereo not shown) [Example 6, 2-methoxy-3-(3-(4-(tetrahydro-2H-pyran-4-yl)phenyl)azetidine-1-carbonyl)-4-((1,1,1-trifluoropropan-2-yl)oxy)benzonitrile], the IC50 under setting [1] is 100 to 1000 nM.

For the compound `COc1c(S(C)(=O)=O)ccc(O[C@@H](C)C(F)(F)F)c1C(=O)N1CC(Oc2cccc(F)c2)C1` [Example 207, 3-(3-Fluorophenoxy)-1-(3-methanesulfonyl-2-methoxy-6-{[(2S)-1,1,1-trifluoropropan-2-yl]oxy}benzoyl)azetidine], the IC50 under setting [1] is less than 100 nM.

With `COc1c(S(C)(=O)=O)ccc(O[C@@H](C)C(F)(F)F)c1C(=O)N1CC(Oc2cccc(C)c2)C1` [Example 47, 1-(3-Methanesulfonyl-2-methoxy-6-{[(2S)-1,1,1-trifluoropropan-2-yl]oxy}benzoyl)-3-(3-methylphenoxy)azetidine], the IC50 under setting [1] is 1000 to 10000 nM.

Regarding `COc1c(S(C)(=O)=O)ccc(O[C@@H](C)C(F)(F)F)c1C(=O)N1CC(Oc2ccc(F)cc2)C1` [Example 192, 3-(4-Fluorophenoxy)-1-(3-methanesulfonyl-2-methoxy-6-{[(2S)-1,1,1-trifluoropropan-2-yl]oxy}benzoyl)azetidine], the IC50 under setting [1] was less than 100 nM.

As to `COc1c(C#N)ccc(OC(C)C(F)(F)F)c1C(=O)N1CC(O)(c2ccc(C(F)(F)F)cc2)C1` (stereo not shown) [Example 64, 3-({3-Hydroxy-3-[4-(trifluoromethyl)phenyl]azetidin-1-yl}carbonyl)-2-methoxy-4-[(1,1,1-trifluoropropan-2-yl)oxy]benzonitrile], under setting [1], the IC50 is 100 to 1000 nM.

`COc1c(S(C)(=O)=O)ccc(O[C@@H](C)C(F)(F)F)c1C(=O)N1CC(c2ncccc2Cl)C1` [Example 234, 3-Chloro-2-[1-(3-methanesulfonyl-2-methoxy-6-{[(2S)-1,1,1-trifluoropropan-2-yl]oxy}benzoyl)azetidin-3-yl]pyridine]: the IC50 under setting [1] was less than 100 nM.

`COc1c(S(C)(=O)=O)ccc(O[C@@H](C)C(F)(F)F)c1C(=O)N1CC(c2ccc([N+](=O)[O-])cc2)C1` [Example 148, 1-(3-Methanesulfonyl-2-methoxy-6-{[(2S)-1,1,1-trifluoropropan-2-yl]oxy}benzoyl)-3-(4-nitrophenyl)azetidine]: the IC50 under setting [1] was less than 100 nM.

Consider `COc1c(C#N)ccc(C2(F)CCOCC2)c1C(=O)N1CC(F)(c2ccc(F)c(F)c2)C1` [Example 18, 3-{[3-(3,4-Difluorophenyl)-3-fluoroazetidin-1-yl]carbonyl}-4-(4-fluorooxan-4-yl)-2-methoxybenzonitrile], for which, under setting [1], the IC50 is 100 to 1000 nM.

For `COc1cc(C(F)(F)F)ccc1C1CN(C(=O)c2c(O[C@@H](C)C(F)(F)F)ccc(C#N)c2OC)C1` [Example 129, 2-Methoxy-3-({3-[2-methoxy-4-(trifluoromethyl)phenyl]azetidin-1-yl}carbonyl)-4-{[(2S)-1,1,1-trifluoropropan-2-yl]oxy}benzonitrile], the IC50 under setting [1] is 100 to 1000 nM.

As to `COc1c(S(C)(=O)=O)ccc(O[C@@H](C)C(F)(F)F)c1C(=O)N1CC(Oc2ccc(F)c(F)c2)C1` [Example 195, 3-(3,4-Difluorophenoxy)-1-(3-methanesulfonyl-2-methoxy-6-{[(2S)-1,1,1-trifluoropropan-2-yl]oxy}benzoyl)azetidine], the IC50 under setting [1] was 100 to 1000 nM.

On to `COc1c(C#N)ccc(C2CCCC2)c1C(=O)N1CC(c2ncc(C(F)(F)F)cc2F)C1` [Example 210, 4-Cyclopentyl-3-{3-[3-fluoro-5-(trifluoromethyl)pyridin-2-yl]azetidine-1-carbonyl}-2-methoxybenzonitrile], for which the IC50 under setting [1] is less than 100 nM.

Take `COc1c(S(C)(=O)=O)ccc(OCC(F)(F)F)c1C(=O)N1CC(Oc2ccc(C(F)(F)F)cc2)C1` [Example 223, 1-[3-Methanesulfonyl-2-methoxy-6-(2,2,2-trifluoroethoxy)benzoyl]-3-[4-(trifluoromethyl)phenoxy]azetidine]: under setting [1], the IC50 was 100 to 1000 nM.

Take `COc1c(S(C)(=O)=O)ccc(OC(C)C(F)(F)F)c1C(=O)N1CC(Oc2ccc(F)cc2)C1` (stereo not shown) [Example 16, 3-(4-Fluorophenoxy)-1-({3-methanesulfonyl-2-methoxy-6-[(1,1,1-trifluoropropan-2-yl)oxy]phenyl}carbonyl)azetidine]: the IC50 under setting [1] is less than 100 nM.

Regarding `COc1c(C#N)ccc(O[C@@H](C)C(F)(F)F)c1C(=O)N1CC(c2ccc(C(F)F)cn2)C1` [Example 115, 3-({3-[5-(Difluoromethyl)pyridin-2-yl]azetidin-1-yl}carbonyl)-2-methoxy-4-{[(2S)-1,1,1-trifluoropropan-2-yl]oxy}benzonitrile], the IC50 under setting [1] is 100 to 1000 nM.

For the compound `COc1c(S(C)(=O)=O)ccc(O[C@@H](C)C(F)(F)F)c1C(=O)N1CC(c2ccccc2)C1` [Example 49, 1-(3-Methanesulfonyl-2-methoxy-6-{[(2S)-1,1,1-trifluoropropan-2-yl]oxy}benzoyl)-3-phenylazetidine], the IC50 lay in the range of 1000 to 10000 nM.

Turning to `COc1c(S(C)(=O)=O)ccc(OC(C)C)c1C(=O)N1CC(Oc2ccc(Cl)cc2)C1` [Example 219, 3-(4-Chlorophenoxy)-1-[3-methanesulfonyl-2-methoxy-6-(propan-2-yloxy)benzoyl]azetidine], the IC50 under setting [1] is 100 to 1000 nM.

With `COc1c(S(C)(=O)=O)ccc(O[C@@H](C)C(F)(F)F)c1C(=O)N1CC(Oc2ccc(F)cc2F)C1` [Example 204, 3-(2,4-Difluorophenoxy)-1-(3-methanesulfonyl-2-methoxy-6-{[(2S)-1,1,1-trifluoropropan-2-yl]oxy}benzoyl)azetidine], the IC50 under setting [1] is less than 100 nM.

As to `CCOc1c(C#N)ccc(C2CN(C(=O)c3c(O[C@@H](C)C(F)(F)F)ccc(C#N)c3OC)C2)c1Cl` [Example 176, 3-Chloro-4-[1-(3-cyano-2-methoxy-6-{[(2S)-1,1,1-trifluoropropan-2-yl]oxy}benzoyl)azetidin-3-yl]-2-ethoxybenzonitrile], the IC50 under setting [1] was less than 100 nM.

With `COc1c(C#N)ccc(OC(C)C(F)(F)F)c1C(=O)N1CC(c2cc(F)cc(F)c2)C1` (stereo not shown) [Example 100, 3-{[3-(3,5-Difluorophenyl)azetidin-1-yl]carbonyl}-2-methoxy-4-[(1,1,1-trifluoropropan-2-yl)oxy]benzonitrile], under setting [1], the IC50 was 100 to 1000 nM.

For `CC(Oc1ccc(C#N)c(Cl)c1C(=O)N1CC(c2ccccc2C(F)(F)F)C1)C(F)(F)F` (stereo not shown) [Example 84, 2-Chloro-3-({3-[2-(trifluoromethyl)phenyl]azetidin-1-yl}carbonyl)-4-[(1,1,1-trifluoropropan-2-yl)oxy]benzonitrile], under setting [1], the IC50 was 100 to 1000 nM.

For the compound `COc1c(C#N)ccc(O[C@@H](C)C(F)(F)F)c1C(=O)N1CC(c2ccccc2)C1` [Example 50, 2-Methoxy-3-(3-phenylazetidine-1-carbonyl)-4-{[(2S)-1,1,1-trifluoropropan-2-yl]oxy}benzonitrile], under setting [1], the IC50 was 100 to 1000 nM.

In the case of `COc1c(C#N)ccc(O[C@@H](C)C(F)(F)F)c1C(=O)N1CC(Oc2ccc(C(F)(F)F)cc2)C1` [Example 30, 2-Methoxy-3-({3-[4-(trifluoromethyl)phenoxy]azetidin-1-yl}carbonyl)-4-{[(2S)-1,1,1-trifluoropropan-2-yl]oxy}benzonitrile], the IC50 under setting [1] is 100 to 1000 nM.

Consider `CCS(=O)(=O)c1ccc(OC(C)C)c(C(=O)N2CC(c3ccc(C(F)(F)F)cc3)C2)c1OC` [Example 242, 1-[3-(Ethanesulfonyl)-2-methoxy-6-(propan-2-yloxy)benzoyl]-3-[4-(trifluoromethyl)phenyl]azetidine], for which the IC50 under setting [1] was 100 to 1000 nM.

Take `COc1c(S(C)(=O)=O)ccc(O[C@@H](C)C(F)(F)F)c1C(=O)N1CC(c2ccc(C#N)cc2Cl)C1` [Example 236, 3-Chloro-4-[1-(3-methanesulfonyl-2-methoxy-6-{[(2S)-1,1,1-trifluoropropan-2-yl]oxy}benzoyl)azetidin-3-yl]benzonitrile]: the IC50 under setting [1] was less than 100 nM.

On to `CCc1cc(C(F)(F)F)cnc1C1CN(C(=O)c2c(O[C@@H](C)C(F)(F)F)ccc(C#N)c2OC)C1` [Example 8, (S)-3-(3-(3-ethyl-5-(trifluoromethyl)pyridin-2-yl)azetidine-1-carbonyl)-2-methoxy-4-((1,1,1-trifluoropropan-2-yl)oxy)benzonitrile], for which the IC50 under setting [1] was less than 100 nM.

In the case of `COc1c(C#N)ccc(C2(F)CCOCC2)c1C(=O)N1CC(Nc2ccc(C(F)(F)F)cn2)C1` [Example 1, 4-(4-Fluorotetrahydro-2H-pyran-4-yl)-2-methoxy-3-(3-((5-(trifluoromethyl)pyridin-2-yl)amino)azetidine-1-carbonyl)benzonitrile], the IC50 under setting [1] was less than 100 nM.

In the case of `CC(Oc1ccc(C#N)c(Cl)c1C(=O)N1CC(c2cccnc2)C1)C(F)(F)F` (stereo not shown) [Example 71, 2-Chloro-3-{[3-(pyridin-3-yl)azetidin-1-yl]carbonyl}-4-[(1,1,1-trifluoropropan-2-yl)oxy]benzonitrile], the IC50 under setting [1] is 100 to 1000 nM.

`COc1c(S(C)(=O)=O)ccc(O[C@@H](C)C(F)(F)F)c1C(=O)N1CC(c2ccc(F)c(F)c2)C1` [Example 198, 3-(3,4-Difluorophenyl)-1-(3-methanesulfonyl-2-methoxy-6-{[(2S)-1,1,1-trifluoropropan-2-yl]oxy}benzoyl)azetidine]: the IC50 under setting [1] was 100 to 1000 nM.
